Organism: Rattus norvegicus
Assay: Open TG-GATES - Regimen: Daily Repeat
Type: toxicity, organism-based, Sprague-Dawley
Design: regimen Daily Repeat, gender Male, age 6 weeks
Conditions: in vivo, po, route gavage; for APTT / Bas / Eos / Fbg / Hb / Ht / Lym / MCH / MCHC / MCV / Mono / Neu / PT / Plat / RBC / Ret / WBC: tissue Blood; for KIDNEY_L / KIDNEY_R / KIDNEY_TOTAL: tissue Kidney; for LIVER: tissue Liver; for A/G / ALP / ALT / AST / BUN / CRE / Ca / Cl / DBIL / GLC / IP / K / LDH / Na / PL / RALB / TBIL / TC / TG / TP / gamma-GTP: tissue Plasma
[1] = 0 mg/kg, 72 h, dose level Control, time 3 day
[2] = 0 mg/kg, […], dose level Control, time 7 day
[3] = 0 mg/kg, […], dose level Control, time 14 day
[4] = 0 mg/kg, […], dose level Control, time 28 day
[5] = 30 mg/kg, 72 h, dose level Low, time 3 day
[6] = 30 mg/kg, […], dose level Low, time 7 day
[7] = 30 mg/kg, […], dose level Low, time 14 day
[8] = 30 mg/kg, […], dose level Low, time 28 day

CCOC(=O)C(C)(C)Oc1ccc(Cl)cc1 [CLOFIBRATE]
TERMINAL_BW [1]: 239.8 g
APTT [1]: 20.7 s
Bas [1]: 0%
Eos [1]: 1%
Fbg [1]: 221 mg/dL
Hb [1]: 13.8 g/dL
Ht [1]: 39.5%
Lym [1]: 75%
MCH [1]: 21.3 pg
MCHC [1]: 34.9%
MCV [1]: 61.1 fL
Mono [1]: 3.2%
Neu [1]: 20.2%
PT [1]: 12.2 s
Plat [1]: 124.2 x10_4/uL
RBC [1]: 646.2 x10_4/ul
Ret [1]: 5.4%
WBC [1]: 98 x10_2/uL
KIDNEY_L [1]: 1 g
KIDNEY_R [1]: 1.1 g
KIDNEY_TOTAL [1]: 2.1 g
LIVER [1]: 12 g
A/G [1]: 1.6
ALP [1]: 881.8 IU/L
ALT [1]: 37.4 IU/L
AST [1]: 68 IU/L
BUN [1]: 14 mg/dL
CRE [1]: 0.4 mg/dL
Ca [1]: 11.1 mg/dL
Cl [1]: 102 meq/L
DBIL [1]: 0.088 mg/dL
GLC [1]: 194.2 mg/dL
IP [1]: 7 mg/dL
K [1]: 4.1 meq/L
LDH [1]: 230.6 IU/L
Na [1]: 140.6 meq/L
PL [1]: 162.4 mg/dL
RALB [1]: 3.5 g/dL
TBIL [1]: 0.1 mg/dL
TC [1]: 78 mg/dL
TG [1]: 137.2 mg/dL
TP [1]: 5.6 g/dL
gamma-GTP [1]: 1.2 IU/L
TERMINAL_BW [2]: 268.6 g
TERMINAL_BW [3]: 332 g
TERMINAL_BW [4]: 392.8 g
APTT [2]: 20.7 s
Bas [2]: 0%
Eos [2]: 0.8%
Fbg [2]: 238 mg/dL
Hb [2]: 14.4 g/dL
Ht [2]: 41%
Lym [2]: 81.6%
MCH [2]: 21.4 pg
MCHC [2]: 35.2%
MCV [2]: 60.8 fL
Mono [2]: 2.6%
Neu [2]: 14.6%
PT [2]: 11.8 s
Plat [2]: 118.2 x10_4/uL
RBC [2]: 675.8 x10_4/ul
Ret [2]: 5.1%
WBC [2]: 104.1 x10_2/uL
APTT [3]: 19 s
Bas [3]: 0%
Eos [3]: 0.8%
Fbg [3]: 227.2 mg/dL
Hb [3]: 14.3 g/dL
Ht [3]: 41.2%
Lym [3]: 80.4%
MCH [3]: 20.3 pg
MCHC [3]: 34.6%
MCV [3]: 58.5 fL
Mono [3]: 3%
Neu [3]: 15%
PT [3]: 12.3 s
Plat [3]: 118.5 x10_4/uL
RBC [3]: 704.8 x10_4/ul
Ret [3]: 4.4%
WBC [3]: 137.8 x10_2/uL
APTT [4]: 21.1 s
Bas [4]: 0%
Eos [4]: 1%
Fbg [4]: 219.4 mg/dL
Hb [4]: 15.2 g/dL
Ht [4]: 43.2%
Lym [4]: 81.4%
MCH [4]: 19.3 pg
MCHC [4]: 35.3%
MCV [4]: 54.9 fL
Mono [4]: 2.6%
Neu [4]: 14.4%
PT [4]: 12 s
Plat [4]: 119.8 x10_4/uL
RBC [4]: 786.6 x10_4/ul
Ret [4]: 2.1%
WBC [4]: 108.2 x10_2/uL
KIDNEY_L [2]: 1.1 g
KIDNEY_R [2]: 1.1 g
KIDNEY_TOTAL [2]: 2.2 g
KIDNEY_L [3]: 1.3 g
KIDNEY_R [3]: 1.3 g
KIDNEY_TOTAL [3]: 2.6 g
KIDNEY_L [4]: 1.4 g
KIDNEY_R [4]: 1.4 g
KIDNEY_TOTAL [4]: 2.8 g
LIVER [2]: 12.5 g
LIVER [3]: 14.9 g
LIVER [4]: 16 g
A/G [2]: 1.6
ALP [2]: 994.8 IU/L
ALT [2]: 33.8 IU/L
AST [2]: 64.6 IU/L
BUN [2]: 16.6 mg/dL
CRE [2]: 0.4 mg/dL
Ca [2]: 10.5 mg/dL
Cl [2]: 102.2 meq/L
DBIL [2]: 0.098 mg/dL
GLC [2]: 213.2 mg/dL
IP [2]: 7.2 mg/dL
K [2]: 3.8 meq/L
LDH [2]: 192.2 IU/L
Na [2]: 138.8 meq/L
PL [2]: 144.8 mg/dL
RALB [2]: 3.6 g/dL
TBIL [2]: 0.2 mg/dL
TC [2]: 70.2 mg/dL
TG [2]: 122 mg/dL
TP [2]: 5.8 g/dL
gamma-GTP [2]: 0.6 IU/L
A/G [3]: 1.3
ALP [3]: 852.2 IU/L
ALT [3]: 37.4 IU/L
AST [3]: 62 IU/L
BUN [3]: 16.2 mg/dL
CRE [3]: 0.4 mg/dL
Ca [3]: 10.6 mg/dL
Cl [3]: 101 meq/L
DBIL [3]: 0.082 mg/dL
GLC [3]: 209.4 mg/dL
IP [3]: 7 mg/dL
K [3]: 3.8 meq/L
LDH [3]: 155 IU/L
Na [3]: 140.4 meq/L
PL [3]: 148 mg/dL
RALB [3]: 3.4 g/dL
TBIL [3]: 0.1 mg/dL
TC [3]: 74.2 mg/dL
TG [3]: 118.4 mg/dL
TP [3]: 5.9 g/dL
gamma-GTP [3]: 0.8 IU/L
A/G [4]: 1.4
ALP [4]: 622.2 IU/L
ALT [4]: 31.2 IU/L
AST [4]: 57.4 IU/L
BUN [4]: 15.2 mg/dL
CRE [4]: 0.4 mg/dL
Ca [4]: 10.4 mg/dL
Cl [4]: 102.6 meq/L
DBIL [4]: 0.08 mg/dL
GLC [4]: 207.2 mg/dL
IP [4]: 5.9 mg/dL
K [4]: 3.8 meq/L
LDH [4]: 154.6 IU/L
Na [4]: 140.8 meq/L
PL [4]: 145.6 mg/dL
RALB [4]: 3.5 g/dL
TBIL [4]: 0.1 mg/dL
TC [4]: 66.8 mg/dL
TG [4]: 124.4 mg/dL
TP [4]: 6.1 g/dL
gamma-GTP [4]: 0.8 IU/L
TERMINAL_BW [5]: 242 g
APTT [5]: 20.9 s
Bas [5]: 0%
Eos [5]: 1%
Fbg [5]: 226 mg/dL
Hb [5]: 13.3 g/dL
Ht [5]: 38%
Lym [5]: 80.8%
MCH [5]: 21.4 pg
MCHC [5]: 35%
MCV [5]: 61.1 fL
Mono [5]: 3.2%
Neu [5]: 15%
PT [5]: 12.5 s
Plat [5]: 131.1 x10_4/uL
RBC [5]: 622.4 x10_4/ul
Ret [5]: 5%
WBC [5]: 108.6 x10_2/uL
KIDNEY_L [5]: 1 g
KIDNEY_R [5]: 1 g
KIDNEY_TOTAL [5]: 2.1 g
LIVER [5]: 12 g
A/G [5]: 1.6
ALP [5]: 1135 IU/L
ALT [5]: 42.4 IU/L
AST [5]: 72.2 IU/L
BUN [5]: 14.8 mg/dL
CRE [5]: 0.4 mg/dL
Ca [5]: 10.9 mg/dL
Cl [5]: 102 meq/L
DBIL [5]: 0.098 mg/dL
GLC [5]: 200.8 mg/dL
IP [5]: 6.3 mg/dL
K [5]: 4 meq/L
LDH [5]: 265.2 IU/L
Na [5]: 140.2 meq/L
PL [5]: 141 mg/dL
RALB [5]: 3.4 g/dL
TBIL [5]: 0.1 mg/dL
TC [5]: 67.6 mg/dL
TG [5]: 112.2 mg/dL
TP [5]: 5.6 g/dL
gamma-GTP [5]: 0.6 IU/L
TERMINAL_BW [6]: 265.8 g
TERMINAL_BW [7]: 333.8 g
TERMINAL_BW [8]: 411.4 g
APTT [6]: 20.2 s
Bas [6]: 0%
Eos [6]: 0.8%
Fbg [6]: 223.4 mg/dL
Hb [6]: 14.1 g/dL
Ht [6]: 39.7%
Lym [6]: 82%
MCH [6]: 21.9 pg
MCHC [6]: 35.5%
MCV [6]: 61.6 fL
Mono [6]: 2.6%
Neu [6]: 14.2%
PT [6]: 12 s
Plat [6]: 124.1 x10_4/uL
RBC [6]: 643.8 x10_4/ul
Ret [6]: 4.4%
WBC [6]: 88.1 x10_2/uL
APTT [7]: 20.1 s
Bas [7]: 0%
Eos [7]: 1%
Fbg [7]: 219.4 mg/dL
Hb [7]: 13.9 g/dL
Ht [7]: 40.8%
Lym [7]: 78.4%
MCH [7]: 20 pg
MCHC [7]: 34%
MCV [7]: 58.9 fL
Mono [7]: 3.2%
Neu [7]: 17.2%
PT [7]: 12.3 s
Plat [7]: 131 x10_4/uL
RBC [7]: 694.6 x10_4/ul
Ret [7]: 4.8%
WBC [7]: 146.7 x10_2/uL
APTT [8]: 20.8 s
Bas [8]: 0%
Eos [8]: 1%
Fbg [8]: 222 mg/dL
Hb [8]: 14.8 g/dL
Ht [8]: 42.7%
Lym [8]: 81.8%
MCH [8]: 18.5 pg
MCHC [8]: 34.7%
MCV [8]: 53.4 fL
Mono [8]: 2.6%
Neu [8]: 14.2%
PT [8]: 12.4 s
Plat [8]: 119.1 x10_4/uL
RBC [8]: 800 x10_4/ul
Ret [8]: 2.2%
WBC [8]: 140.9 x10_2/uL
KIDNEY_L [6]: 1.1 g
KIDNEY_R [6]: 1.1 g
KIDNEY_TOTAL [6]: 2.2 g
KIDNEY_L [7]: 1.3 g
KIDNEY_R [7]: 1.3 g
KIDNEY_TOTAL [7]: 2.6 g
KIDNEY_L [8]: 1.5 g
KIDNEY_R [8]: 1.5 g
KIDNEY_TOTAL [8]: 3 g
LIVER [6]: 12.4 g
LIVER [7]: 16 g
LIVER [8]: 16.9 g
A/G [6]: 1.6
ALP [6]: 883.2 IU/L
ALT [6]: 35.8 IU/L
AST [6]: 72 IU/L
BUN [6]: 16 mg/dL
CRE [6]: 0.4 mg/dL
Ca [6]: 10.4 mg/dL
Cl [6]: 103.2 meq/L
DBIL [6]: 0.07 mg/dL
GLC [6]: 213 mg/dL
IP [6]: 6.8 mg/dL
K [6]: 3.5 meq/L
LDH [6]: 245 IU/L
Na [6]: 141.4 meq/L
PL [6]: 127 mg/dL
RALB [6]: 3.6 g/dL
TBIL [6]: 0.1 mg/dL
TC [6]: 60 mg/dL
TG [6]: 96 mg/dL
TP [6]: 5.8 g/dL
gamma-GTP [6]: 0.8 IU/L
A/G [7]: 1.4
ALP [7]: 845.6 IU/L
ALT [7]: 32.4 IU/L
AST [7]: 56.8 IU/L
BUN [7]: 16.4 mg/dL
CRE [7]: 0.4 mg/dL
Ca [7]: 10.4 mg/dL
Cl [7]: 101.4 meq/L
DBIL [7]: 0.088 mg/dL
GLC [7]: 229.8 mg/dL
IP [7]: 7 mg/dL
K [7]: 4 meq/L
LDH [7]: 183.4 IU/L
Na [7]: 140.2 meq/L
PL [7]: 145.6 mg/dL
RALB [7]: 3.4 g/dL
TBIL [7]: 0.1 mg/dL
TC [7]: 64.8 mg/dL
TG [7]: 135 mg/dL
TP [7]: 5.8 g/dL
gamma-GTP [7]: 0.8 IU/L
A/G [8]: 1.4
ALP [8]: 741.4 IU/L
ALT [8]: 41 IU/L
AST [8]: 68.4 IU/L
BUN [8]: 14.6 mg/dL
CRE [8]: 0.4 mg/dL
Ca [8]: 10.3 mg/dL
Cl [8]: 102.2 meq/L
DBIL [8]: 0.084 mg/dL
GLC [8]: 207.8 mg/dL
IP [8]: 6.1 mg/dL
K [8]: 3.9 meq/L
LDH [8]: 165.8 IU/L
Na [8]: 140.4 meq/L
PL [8]: 134 mg/dL
RALB [8]: 3.4 g/dL
TBIL [8]: 0.1 mg/dL
TC [8]: 61.6 mg/dL
TG [8]: 121.6 mg/dL
TP [8]: 5.9 g/dL
gamma-GTP [8]: 0.8 IU/L

Reference: ChEMBL document CHEMBL3885861, “Open TG-GATES”
